Reference: patent US20230201341A1, “TLR3 AND TLR9 AGONISTS AS VACCINE ADJUVANTS FOR ANTI-CANCER DNA VACCINES” (WISCONSIN ALUMNI RESEARCH FOUNDATION, priority 2021, published 2023)

Test system: TRAMP-C1 tumor cells
Assay: Tumor study with TRAMP-C1 tumors: DNA vaccine pTVG-AR co-delivered with TLR agonists
Assay type: in vivo, C57BL/6 mice
Settings: administered with a DNA cancer vaccine in mice; compared with vaccine alone
From the text: FIG. 6. Combinations of TLR agonists improve the anti-tumor efficacy of a DNA vaccine in a prostate cancer tumor model. C57BL/6 mice were implanted subcutaneously with TRAMP-C1 tumor cells. Mice were immunized intradermally weekly with control vector (pTVG4) or DNA encoding AR ligand-binding domain (pTVG-AR) and delivered alone or co-delivered with TLR1/2, TLR3 and/or TLR9 agonists. (A) shown are the growth curves for each group (n=6 animals per group). (B) Survival plots using the time to death or when tumors reached 2 cm3 in size, whichever occurred first. (C) Tumors obtained at necropsy were evaluated for the percentage of infiltrating CD45^+ cells, CD8^+ T cells among CD45^+ cells, and Treg cells (CD25^+Foxp3^+) among CD4^+CD45^+ cells. (D) Tumor-infiltrating CD8+ T cells were evaluated for 4-1BB and PD-1 expression by flow cytometry.
FIG. 11. Combinations of TLR agonists improve the anti-tumor efficacy of a DNA vaccine in a prostate cancer tumor model. […]
Six- to ten-week-old male C57BL/6 mice were inoculated with 1×10^6 TRAMP-C1 cells, administered subcutaneously with matrigel. […] TLR agonist(s) were co-administered with the vaccine intradermally, and tumor volumes were measured as described above. Obtained tumors were digested in collagenase and DNAse I for 1 hour at 37° C., passed through a […] screen, and analyzed by flow cytometry.

ODN 1826
tumor growth suppression: improved the tumor growth suppression
